{"source": "patent US9480772B2", "about": "“Gel sheet containing lipid peptide gelator and polymeric compound” (NISSAN CHEMICAL INDUSTRIES, LTD., priority 2010, dated 2016)", "experiment": "Gel state after standing overnight and affinity with water (Example 1)", "assay_type": "physicochemical", "parameters": "key to Affinity with water by addition of milliQ water: a sample ascertained to have the affinity with water is evaluated as ∘; a sample ascertained to have no affinity with water is evaluated as x", "description": "N-Palmitoyl-Gly-His synthesized above was dissolved in a 50 mM phosphate buffer solution (pH 7.5) so as to give a concentration of 1% (w/w) in a closed system at 100° C. To the solution, gum arable (Wako Pure Chemical Industries, Ltd.) was added dropwise so as to give a concentration of 10% (w/w) so as to form gel. From the formed gel, 200 μl of the gel was taken and dropped onto a glass petri dish. The gel was left overnight and then observed. To the gel after standing overnight, milliQ water was dropped, and the affinity with water was observed. Also, PVA (manufactured by Wako Pure Chemical Industries, Ltd., n=1,500 to 1,800) at a concentration of 10% (w/w) was added dropwise, in place of the gum arabic, so as to form gel. Then, the gel was subjected to the same procedure, and the gel after standing overnight was observed.\nFor comparison, gum arable alone or PVA alone was used without using N-palmitoyl-Gly-His and was dropped onto a glass petri dish in a similar manner. Then, each sample was left overnight and then observed in a similar manner.\nFrom the observation results, a sample ascertained to have the affinity with water is evaluated as ∘, and a sample ascertained to have no affinity with water is evaluated as x.", "note": "Residues, ends and D or L forms follow the SMILES beside them. *: point of attachment. Palmitoyl = CCCCCCCCCCCCCCCC(=O)*", "data": [{"smiles": "CCCCCCCCCCCCCCCC(=O)NCC(=O)N[C@@H](Cc1c[nH]cn1)C(=O)O", "note": "[N-palmitoyl-Gly-His] (Palmitoyl-Gly-His-OH)", "values": [{"measurement": "Change in gel state after standing overnight", "setting": "200 μl dropped onto a glass petri dish, left overnight", "result": "White gel"}, {"measurement": "Affinity with water by addition of milliQ water", "setting": "gel after standing overnight, milliQ water dropped", "result": "∘"}]}]}
